Experimental data from patent US20100041089A1, “IMPROVED METHOD FOR DETECTING CHEMICAL […]” (priority 2006, published 2010).

Tested on: yeast genes (expressed mRNA)
Test: DNA chip measurement of expressed mRNA of yeast genes after culture with a toxic chemical substance
Format: cell-based, Saccharomyces cerevisiae S288C
Procedure: Yeast (Saccharomyces cerevisiae S288C (a SUC2mal mel gap2 CUP1)) were cultured at 25° C. on YPD medium (yeast extract 1%, polypeptone 2%, glucose 2%). One of toxic chemical substances was added to the cell at logarithmic growth phase, and the cell was further cultured for two hours. Cell was cultured without any chemical substance in the same condition, and was used as a control. Concentrations of the chemical substances were defined to inhibit the growth of the yeast but not lead to death.
After the completion of cultivation, the culture was centrifuged to collect the cells. To the cells, sodium acetate buffer (50 mM sodium acetate, 10 mM EDTA, 1% SDS) was added, and the mixture was shaken at 65° C. for five minutes, followed by returning to room temperature, and obtaining the supernatant, which procedure was repeated two times. To the supernatant, ½ amount of a solution of phenol/chloroform (1:1) was added, and the mixture was centrifuged to give a supernatant, an equal amount of chloroform was added, and the mixture was centrifuged to give a supernatant. To the supernatant, an equal amount of isopropanol containing 0.3 M sodium acetate was added, and the mixture was allowed to stand at room temperature for 30 minutes, after which the mixture was centrifuged to give sediment of the whole RNAs. Seventy % ethanol was added to the sediment, and the mixture was again centrifuged to give sediment, which was then dried and dissolved in water. mRNA was isolated from the whole RNAs as followings. In view of the fact that a poly A chain is attached to the 3′ terminus of mRNA, a polynucleotide having a poly T structure which was immobilized on the surface of latex beads was used to trap the mRNA, and then the mRNA was washed and eluted with spine column (Oligotex-dT30<Super>mRNA Purification Kit, Takara). Reverse transcription of the mRNA was conducted with a reverse transcriptase (Super Script II Reverse Transcriptase; catalogue No. 18064-014, GibcoBRL) using fluorescence-labeled nucleotides to give cDNAs that were introduced with Cy3-dUTP or Cy5-dUTP during the reverse transcription.
The labeled cDNAs were dissolved in TE buffer (10 mM Tris-HCl/1 mM EDTA, pH 8.0), and the solution was dropped on the DNA chip containing the whole genes of yeast (DNA Chip Research Inc. Japan) so that the cDNAs were hybridized on the DNA chip at 65° C. for over 12 hours. The fluoresces intensity of the DNA chip was read with a scanner, and the ratio relative to the fluorescence intensity resulting from the absence of chemical substance was estimated as the following, which is shown in Tables 1 to 9.
In the Tables, “Intensity” indicated in the rightmost column is a value of the level of expressed mRNA of each gene in control cells as divided by the average level of the expressions of the whole genes. A gene of which mRNA level is lower in control, and is higher in cases of addition of chemical substance, is especially useful in the detection of toxic substances.
Here, when a ratio of an amount of mRNA expressed in the presence of the chemical substance to an amount of mRNA expressed in the absence of the chemical substance is two or more, then it is considered significant.

## S=C([S-])NCCNC(=S)[S-].[Zn+2] [(11), Zinc N,N′-ethylenebis(dithiocarbamate)]
Yeast gene YAL053W, cultured two hours with substance
  The level of expressed mRNA in the presence of chemical substance/The level of expressed mRNA in the absence of chemical substance: 2.3
Yeast gene YAR028W, cultured two hours with substance
  The level of expressed mRNA in the presence of chemical substance/The level of expressed mRNA in the absence of chemical substance: 0.9
Yeast gene YBL048W, cultured two hours with substance
  The level of expressed mRNA in the presence of chemical substance/The level of expressed mRNA in the absence of chemical substance: 2.0
Yeast gene YBL107C, cultured two hours with substance
  The level of expressed mRNA in the presence of chemical substance/The level of expressed mRNA in the absence of chemical substance: 2.9
Yeast gene YBR008C (detoxification protein gene)
  The level of expressed mRNA in the presence of chemical substance/The level of expressed mRNA in the absence of chemical substance: 9.4
Yeast gene YBR072W (stress protein genes)
  The level of expressed mRNA in the presence of chemical substance/The level of expressed mRNA in the absence of chemical substance: 6.3
Yeast gene YBR096W, cultured two hours with the chemical substance
  The level of expressed mRNA in the presence of chemical substance/The level of expressed mRNA in the absence of chemical substance: 1.2
Yeast gene YBR269C, cultured two hours with substance
  The level of expressed mRNA in the presence of chemical substance/The level of expressed mRNA in the absence of chemical substance: 1.2
Yeast gene YCR102C, cultured two hours with substance
  The level of expressed mRNA in the presence of chemical substance/The level of expressed mRNA in the absence of chemical substance: 13.5
Yeast gene YDL023C, cultured two hours with the chemical substance
  The level of expressed mRNA in the presence of chemical substance/The level of expressed mRNA in the absence of chemical substance: 3.5
Yeast gene YDL072C, cultured two hours with substance
  The level of expressed mRNA in the presence of chemical substance/The level of expressed mRNA in the absence of chemical substance: 1.4
Yeast gene YDL169C, cultured two hours with substance
  The level of expressed mRNA in the presence of chemical substance/The level of expressed mRNA in the absence of chemical substance: 1.2
Yeast gene YDL204W, cultured two hours with substance
  The level of expressed mRNA in the presence of chemical substance/The level of expressed mRNA in the absence of chemical substance: 3.2
Yeast gene YDL218W, cultured two hours with substance
  The level of expressed mRNA in the presence of chemical substance/The level of expressed mRNA in the absence of chemical substance: 5.7
Yeast gene YDL222C, cultured two hours with substance
  The level of expressed mRNA in the presence of chemical substance/The level of expressed mRNA in the absence of chemical substance: 2.6
Yeast gene YDR031W, cultured two hours with substance
  The level of expressed mRNA in the presence of chemical substance/The level of expressed mRNA in the absence of chemical substance: 1.2
Yeast gene YDR070C, cultured two hours with substance
  The level of expressed mRNA in the presence of chemical substance/The level of expressed mRNA in the absence of chemical substance: 4.1
Yeast gene YDR077W (stress protein genes)
  The level of expressed mRNA in the presence of chemical substance/The level of expressed mRNA in the absence of chemical substance: 6.8
Yeast gene YDR330W, cultured two hours with substance
  The level of expressed mRNA in the presence of chemical substance/The level of expressed mRNA in the absence of chemical substance: 0.9
Yeast gene YDR391C, cultured two hours with substance
  The level of expressed mRNA in the presence of chemical substance/The level of expressed mRNA in the absence of chemical substance: 1.9
Yeast gene YDR411C, cultured two hours with substance
  The level of expressed mRNA in the presence of chemical substance/The level of expressed mRNA in the absence of chemical substance: 1.3
Yeast gene YDR486C, cultured two hours with substance
  The level of expressed mRNA in the presence of chemical substance/The level of expressed mRNA in the absence of chemical substance: 1.4
Yeast gene YDR511W, cultured two hours with substance
  The level of expressed mRNA in the presence of chemical substance/The level of expressed mRNA in the absence of chemical substance: 1.2
Yeast gene YDR533C, cultured two hours with substance
  The level of expressed mRNA in the presence of chemical substance/The level of expressed mRNA in the absence of chemical substance: 7.7
Yeast gene YDR545W, cultured two hours with substance
  The level of expressed mRNA in the presence of chemical substance/The level of expressed mRNA in the absence of chemical substance: 0.7
Yeast gene YEL001C, cultured two hours with substance
  The level of expressed mRNA in the presence of chemical substance/The level of expressed mRNA in the absence of chemical substance: 1.2
Yeast gene YEL033W, cultured two hours with the chemical substance
  The level of expressed mRNA in the presence of chemical substance/The level of expressed mRNA in the absence of chemical substance: 1.2
Yeast gene YER004W, cultured two hours with substance
  The level of expressed mRNA in the presence of chemical substance/The level of expressed mRNA in the absence of chemical substance: 2.2
Yeast gene YER035W, cultured two hours with substance
  The level of expressed mRNA in the presence of chemical substance/The level of expressed mRNA in the absence of chemical substance: 1.4
Yeast gene YER038C, cultured two hours with substance
  The level of expressed mRNA in the presence of chemical substance/The level of expressed mRNA in the absence of chemical substance: 0.6
Yeast gene YER079W, cultured two hours with substance
  The level of expressed mRNA in the presence of chemical substance/The level of expressed mRNA in the absence of chemical substance: 2.1
Yeast gene YER106W, cultured two hours with substance
  The level of expressed mRNA in the presence of chemical substance/The level of expressed mRNA in the absence of chemical substance: 1.0
Yeast gene YER158C, cultured two hours with substance
  The level of expressed mRNA in the presence of chemical substance/The level of expressed mRNA in the absence of chemical substance: 2.3
Yeast gene YER163C, cultured two hours with substance
  The level of expressed mRNA in the presence of chemical substance/The level of expressed mRNA in the absence of chemical substance: 1.6
Yeast gene YER175C, cultured two hours with substance
  The level of expressed mRNA in the presence of chemical substance/The level of expressed mRNA in the absence of chemical substance: 1.1
Yeast gene YFL006W, cultured two hours with substance
  The level of expressed mRNA in the presence of chemical substance/The level of expressed mRNA in the absence of chemical substance: 1.2
Yeast gene YFL010C, cultured two hours with substance
  The level of expressed mRNA in the presence of chemical substance/The level of expressed mRNA in the absence of chemical substance: 1.4
Yeast gene YFL024C, cultured two hours with substance
  The level of expressed mRNA in the presence of chemical substance/The level of expressed mRNA in the absence of chemical substance: 0.6
Yeast gene YFL032W, cultured two hours with substance
  The level of expressed mRNA in the presence of chemical substance/The level of expressed mRNA in the absence of chemical substance: 1.1
Yeast gene YFR015C, cultured for two hours with substance
  The level of expressed mRNA in the presence of chemical substance/The level of expressed mRNA in the absence of chemical substance: 3.9
